According to patent publication US10219516B2, “Molecules having pesticidal utility, and intermediates, compositions, and processes, related thereto” (priority 2015, dated 2019):
Read-outs that look alike come from different tables or passages of the source.

How the values were obtained:
Type in all cases: in vivo
[1] = test system: Beet Armyworm (Spodoptera exigua, LAPHEG); assay: Bioassay on Beet Armyworm (BAW), 128-well diet tray assay
Method in brief: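 Percent mortality, averaged across eight replicate wells, was scored after five to seven days at 25° C. under a 14:10 light-dark cycle. Each well's diet carried 50 μg/cm^2 of the dried test molecule and held one to five second instar larvae.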

[2] = test system: Cabbage Looper (Trichoplusia ni, TRIPNI); assay: Bioassay on Cabbage Looper (CL), 128-well diet tray assay; settings: Trichoplusia ni
Method in brief: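 Percent mortality, averaged across eight replicate wells, was scored after five to seven days at 25° C. under a 14:10 light-dark cycle. Each well held one to five second instar larvae on artificial diet treated at 50 μg/cm^2 with compound from 90:10 acetone-water, allowed to dry before infestation.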

[3] = test system: Yellow Fever Mosquito (Aedes aegypti, AEDSAE); assay: Bioassay on Yellow Fever Mosquito (YFM), 96-well plate larval assay; settings: for YFM rating: Yellow Fever Mosquito, 96-well plate larval assay; for YFM (Biological Results, rating): Species YFM (Yellow Fever Mosquito)
Method in brief: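 Aedes aegypti larvae (about 1 day old) in liver-powder water were added to plates dispensed from DMSO master plates (4000 ppm stock) diluted with 90:10 water/acetone; six replicate plates per master. Lidded plates were held at room temperature for 3 days, then each well was scored for mortality.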

[4] = test system: Green Peach Aphid (Myzus persicae, MYZUPE); assay: Bioassay on Green Peach Aphid (GPA), foliar spray on infested cabbage seedlings; settings: 72 h
Method in brief: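 Cabbage seedlings (2-3 true leaves) infested with 20-50 wingless adult and nymph aphids one day before treatment; sprayed to runoff at 200 ppm in 0.025% Tween 20 water with 20% acetone/methanol, four pots per treatment. Held three days at about 25° C; live aphids counted, % control by Abbott's correction versus solvent check.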

[5] = Beet Armyworm, 128-well diet tray assay, read-out: BAW rating
[6] = Cabbage Looper, 128-well diet tray assay, read-out: CL rating
[7] = Green Peach Aphid, foliar spray on cabbage seedlings, read-out: GPA rating
[8] = Species BAW (Beet Armyworm), read-out: BAW (Biological Results, rating)
[9] = Species CL (Cabbage Looper), read-out: CL (Biological Results, rating)
[10] = foliar, Species GPA (Green Peach Aphid), read-out: GPA (Biological Results, rating)

Row | SMILES | pest or weed control at 50 µg/cm2 [1, 5] | pest or weed control at 50 µg/cm2 [2, 6] | YFM rating [3] | pest or weed control at 200 µg/mL [4, 7] | pest or weed control at 50 µg/cm2 [1, 8] | pest or weed control at 50 µg/cm2 [2, 9] | YFM (Biological Results, rating) [3] | pest or weed control at 200 µg/mL [4, 10]
1 | O=C(Nc1ccc(F)cc1F)c1cc(NC(=O)[C@H]2[C@H](c3cc(F)cc(C(F)(F)F)c3)C2(Cl)Cl)ccc1Cl (relative stereo) [F412, 2-Chloro-5-(trans)-(2,2-dichloro-3-(3-fluoro-5-(trifluoromethyl)phenyl)cyclopropane-1-carboxamido)-N-(2,4-difluorophenyl)benzamide] | 50 to 100% | 50 to 100% | A (80-100) | 80 to 100% | – | – | – | –
2 | O=C(Nc1ccc(F)cc1F)c1cc(NC(=O)[C@H]2[C@H](c3cc(F)cc(Br)c3)C2(Cl)Cl)ccc1Cl (relative stereo) [F423, 5-(trans)-(3-(3-Bromo-5-fluorophenyl)-2,2-dichlorocyclopropane-1-carboxamido)-2-chloro-N-(2,4-difluorophenyl)benzamide] | 50 to 100% | 50 to 100% | A (80-100) | 80 to 100% | – | – | – | –
3 | O=C(Nc1cnc2[nH]ccc2c1)c1cc(NC(=O)[C@H]2[C@H](c3cc(Cl)cc(Cl)c3)C2(Cl)Cl)ccc1Cl (relative stereo) [F481, 2-Chloro-5-(trans)-(2,2-dichloro-3-(3,5-dichlorophenyl)cyclopropane-1-carboxamido)-N-(1H-pyrrolo[2,3-b]pyridin-5-yl)benzamide] | 50 to 100% | 50 to 100% | A (80-100) | 0 to 80% | – | – | – | –
4 | O=C(Nc1ccc(F)cc1)c1cc(NC(=O)[C@H]2[C@H](c3ccc(F)c(Cl)c3)C2(Cl)Cl)ccc1Cl (relative stereo) [PF4, trans-2-Chloro-5-(2,2-dichloro-3-(3-chloro-4-fluorophenyl)cyclopropane-1-carboxamido)-N-(4-fluorophenyl)benzamide] | 50 to 100% | 50 to 100% | B (More than 0-Less than 80) | 80 to 100% | – | – | – | –
5 | CN(C(=O)c1cc(NC(=O)[C@H]2[C@H](c3ccc(F)c(Cl)c3)C2(Cl)Cl)ccc1Cl)c1ccc(F)cc1 (relative stereo) [PF5, trans-2-Chloro-5-(2,2-dichloro-3-(3-chloro-4-fluorophenyl)cyclopropane-1-carboxamido)-N-(4-fluorophenyl)-N-methylbenzamide] | 50 to 100% | 50 to 100% | A (80-100) | 80 to 100% | – | – | – | –
6 | COCC(=O)N(C)c1ccc(NC(=O)c2cc(NC(=O)[C@H]3[C@H](c4cc(Cl)cc(Cl)c4)C3(Cl)Cl)ccc2Cl)cc1 (relative stereo) [PF31, trans-2-Chloro-5-(2,2-dichloro-3-(3,5-dichlorophenyl)cyclopropane-1-carboxamido)-N-(4-(2-methoxy-N-methylacetamido)phenyl)benzamide] | 50 to 100% | 50 to 100% | B (More than 0-Less than 80) | 0 to 80% | – | – | – | –
7 | CN(C(=O)c1cc(NC(=O)[C@H]2[C@H](c3ccc(Cl)c(F)c3)C2(Cl)Cl)ccc1Cl)c1ccc(F)cc1 (relative stereo) [PF35, trans-2-Chloro-5-(2,2-dichloro-3-(4-chloro-3-fluorophenyl)cyclopropane-1-carboxamido)-N-(4-fluorophenyl)-N-methylbenzamide] | 50 to 100% | 50 to 100% | A (80-100) | 80 to 100% | – | – | – | –
8 | CN(C(=O)c1cc(NC(=O)[C@H]2[C@H](c3cc(Cl)cc(Br)c3)C2(Cl)Cl)ccc1Cl)c1ccc(F)cc1 (relative stereo) [PF38, trans-5-(3-(3-Bromo-5-chlorophenyl)-2,2-dichlorocyclopropane-1-carboxamido)-2-chloro-N-(4-fluorophenyl)-N-methylbenzamide] | 50 to 100% | 50 to 100% | A (80-100) | 80 to 100% | – | – | – | –
9 | N#Cc1cc(F)ccc1NC(=O)c1cc(NC(=O)[C@H]2[C@H](c3cc(Cl)cc(Cl)c3)C2(Cl)Cl)ccc1Cl (relative stereo) [PF67, trans-2-Chloro-N-(2-cyano-4-fluorophenyl)-5-(2,2-dichloro-3-(3,5-dichlorophenyl)cyclopropane-1-carboxamido)benzamide] | 50 to 100% | 50 to 100% | B (More than 0-Less than 80) | 80 to 100% | – | – | – | –
10 | O=C(Nc1ccc(F)cc1C(F)(F)F)c1cc(NC(=O)[C@H]2[C@H](c3cc(Cl)cc(Cl)c3)C2(Cl)Cl)ccc1Cl (relative stereo) [PF69, trans-2-chloro-5-(2,2-dichloro-3-(3,5-dichlorophenyl)cyclopropane-1-carboxamido)-N-(4-fluoro-2-(trifluoromethyl)phenyl)benzamide] | 50 to 100% | 50 to 100% | B (More than 0-Less than 80) | 80 to 100% | – | – | – | –
11 | O=C(Nc1cccc(C(F)(F)F)c1)c1cc(NC(=O)[C@H]2[C@H](c3cc(Cl)cc(Cl)c3)C2(Cl)Cl)ccc1Cl (relative stereo) [PF71, trans-2-Chloro-5-(2,2-dichloro-3-(3,5-dichlorophenyl)cyclopropane-1-carboxamido)-N-(3-(trifluoromethyl)phenyl)benzamide] | 50 to 100% | 50 to 100% | A (80-100) | 0 to 80% | – | – | – | –
12 | O=C(Nc1cccc([N+](=O)[O-])c1)c1cc(NC(=O)[C@H]2[C@H](c3cc(Cl)cc(Cl)c3)C2(Cl)Cl)ccc1Cl (relative stereo) [PF73, trans-2-Chloro-5-(2,2-dichloro-3-(3,5-dichlorophenyl)cyclopropane-1-carboxamido)-N-(3-nitrophenyl)benzamide] | 50 to 100% | 50 to 100% | B (More than 0-Less than 80) | 80 to 100% | – | – | – | –
13 | O=C(Nc1ccsc1)c1cc(NC(=O)[C@H]2[C@H](c3cc(Cl)cc(Cl)c3)C2(Cl)Cl)ccc1Cl (relative stereo) [PF152, trans-2-Chloro-5-(2,2-dichloro-3-(3,5-dichlorophenyl)cyclopropane-1-carboxamido)-N-(thiophen-3-yl)benzamide] | 50 to 100% | 50 to 100% | B (More than 0-Less than 80) | 0 to 80% | – | – | – | –
14 | O=C(Nc1ccc(F)cc1)c1cc(NC(=O)[C@H]2[C@H](c3cc(Cl)cc(Cl)c3)C2(Cl)Cl)ccc1Cl [F165, 2-Chloro-5-((1R,3R)-2,2-dichloro-3-(3,5-dichlorophenyl)cyclopropane-1-carboxamido)-N-(4-fluorophenyl)benzamide] | – | – | – | – | 50 to 100% | 50 to 100% | B (More than 0-Less than 80) | 80 to 100%
15 | O=C(Nc1ccc(F)cc1)c1cc(NC(=O)[C@H]2[C@H](c3cc(Cl)c(Cl)c(Cl)c3)C2(Cl)Cl)ccc1Cl [F279, 2-Chloro-5-((1R,3R)-2,2-dichloro-3-(3,4,5-trichlorophenyl)cyclopropane-1-carboxamido)-N-(4-fluorophenyl)benzamide] | – | – | – | – | 50 to 100% | 50 to 100% | A (80-100) | 80 to 100%
16 | O=C(Nc1ccc(F)cc1)c1cc(NC(=O)[C@@H]2[C@@H](c3cc(Cl)c(Cl)c(Cl)c3)C2(Cl)Cl)ccc1Cl [F280, 2-Chloro-5-((1S,3S)-2,2-dichloro-3-(3,4,5-trichlorophenyl)cyclopropane-1-carboxamido)-N-(4-fluorophenyl)benzamide] | – | – | – | – | 50 to 100% | 50 to 100% | A (80-100) | 0 to 80%
17 | C#CCN(C(=O)c1cc(NC(=O)[C@H]2[C@H](c3ccc(F)c(Cl)c3)C2(Cl)Cl)ccc1Cl)c1ccc(F)cc1F [F414, 2-Chloro-5-((1R,3R)-2,2-dichloro-3-(3-chloro-4-fluorophenyl)cyclopropane-1-carboxamido)-N-(2,4-difluorophenyl)-N-(prop-2-yn-1-yl)benzamide] | 50 to 100% | 50 to 100% | A (80-100) | 80 to 100% | – | – | – | –
18 | O=C(Nc1ccc2ncsc2c1)c1cc(NC(=O)C2C(c3cc(Cl)cc(Cl)c3)C2(Cl)Cl)ccc1Cl (stereo not drawn) [F434, N-(Benzo[d]thiazol-6-yl)-2-chloro-5-(trans)-2,2-dichloro-3-(3,5-dichlorophenyl)cyclopropane-1-carboxamido)benzamide] | 50 to 100% | 50 to 100% | A (80-100) | 0 to 80% | – | – | – | –
